Laboratory results from article PMC5303825, “The ancient CYP716 family is a major contributor to the diversification of eudicot triterpenoid biosynthesis” (Nature Communications, 2017).

Experiments:
Type in all cases: cell-based
[1] = target: T1, CYP716A113v1 (Aquilegia coerulea, UniProt A0A1I9Q601); test: GC-MS of products in spent medium of engineered yeast; conditions: co-expressed SlCAS and MTR1; putative hydroxy-cycloartenol product
T1 construct: full-length ORF from cDNA, expressed in Saccharomyces cerevisiae with tomato SlCAS and M. truncatula reductase MTR1
T1 sequence (A0A1I9Q601 1-485): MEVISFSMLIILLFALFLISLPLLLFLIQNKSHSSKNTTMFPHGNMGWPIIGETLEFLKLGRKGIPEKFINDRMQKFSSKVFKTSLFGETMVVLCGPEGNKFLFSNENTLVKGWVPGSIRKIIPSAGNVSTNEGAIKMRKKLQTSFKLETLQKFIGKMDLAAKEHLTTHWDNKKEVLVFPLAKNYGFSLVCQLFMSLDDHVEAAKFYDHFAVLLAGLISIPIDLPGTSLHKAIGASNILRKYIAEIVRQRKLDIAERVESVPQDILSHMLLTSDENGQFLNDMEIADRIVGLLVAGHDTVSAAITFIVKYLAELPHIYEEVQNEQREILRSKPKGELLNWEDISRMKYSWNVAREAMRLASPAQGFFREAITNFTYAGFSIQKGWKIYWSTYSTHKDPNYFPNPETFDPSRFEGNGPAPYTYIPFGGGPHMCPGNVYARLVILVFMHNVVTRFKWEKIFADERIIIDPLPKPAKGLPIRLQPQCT

[2] = target: T2, CYP716A83 (Centella asiatica, UniProt A0A1I9Q5Y4); test: as above
T2 construct: full-length ORF from cDNA library, expressed in Saccharomyces cerevisiae with GgBAS (or CaDDS) and M. truncatula reductase MTR1; T2A polyprotein with CYP716C11 in some strains

[3] = target: T3, CYP716A86 (Centella asiatica, UniProt A0A1I9Q5Y3); test: as above; conditions: co-expressed GgBAS and MTR1; products erythrodiol, oleanolic aldehyde, oleanolic acid
T3 construct: full-length ORF from cDNA library, expressed in Saccharomyces cerevisiae with GgBAS and M. truncatula reductase MTR1
T3 sequence (A0A1I9Q5Y3 1-482): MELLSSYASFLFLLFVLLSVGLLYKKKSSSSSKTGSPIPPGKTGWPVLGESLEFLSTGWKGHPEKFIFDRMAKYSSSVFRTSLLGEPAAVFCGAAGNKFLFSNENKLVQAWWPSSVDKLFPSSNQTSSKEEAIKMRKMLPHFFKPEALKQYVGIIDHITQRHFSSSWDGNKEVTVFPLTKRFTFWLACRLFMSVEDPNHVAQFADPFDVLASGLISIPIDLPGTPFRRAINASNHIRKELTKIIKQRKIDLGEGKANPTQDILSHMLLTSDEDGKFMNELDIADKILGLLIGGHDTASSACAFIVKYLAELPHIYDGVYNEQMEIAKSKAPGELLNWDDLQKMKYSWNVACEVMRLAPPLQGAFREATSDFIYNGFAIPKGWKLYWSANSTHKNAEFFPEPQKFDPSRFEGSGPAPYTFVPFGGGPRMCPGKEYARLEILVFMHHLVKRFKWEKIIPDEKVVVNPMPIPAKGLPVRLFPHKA

[4] = target: T4, CYP716A141 (Platycodon grandiflorus, UniProt A0A1I9Q5Z0); test: GC-MS of engineered yeast medium; product NMR; conditions: co-expressed GgBAS and MTR1; product 16β-hydroxy β-amyrin (minor erythrodiol, oleanolic acid)
T4 construct: full-length ORF (RACE), expressed in Saccharomyces cerevisiae with GgBAS and M. truncatula reductase MTR1; b33 once misprints C. asiatica
T4 sequence (A0A1I9Q5Z0 1-481): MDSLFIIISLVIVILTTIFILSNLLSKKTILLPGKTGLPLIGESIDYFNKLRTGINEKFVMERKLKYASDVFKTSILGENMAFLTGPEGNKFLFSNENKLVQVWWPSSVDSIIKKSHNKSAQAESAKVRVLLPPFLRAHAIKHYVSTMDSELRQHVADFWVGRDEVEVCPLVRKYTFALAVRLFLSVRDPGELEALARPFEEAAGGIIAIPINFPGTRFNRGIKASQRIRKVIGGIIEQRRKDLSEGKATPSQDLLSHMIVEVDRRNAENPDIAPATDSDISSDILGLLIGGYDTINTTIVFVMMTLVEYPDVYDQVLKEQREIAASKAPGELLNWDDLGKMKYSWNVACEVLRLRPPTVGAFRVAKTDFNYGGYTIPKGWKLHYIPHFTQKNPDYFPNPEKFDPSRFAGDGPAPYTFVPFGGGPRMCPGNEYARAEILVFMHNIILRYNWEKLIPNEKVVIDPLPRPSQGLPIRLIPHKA

[5] = target: T5, CYP716A110 (Aquilegia coerulea, UniProt A0A1I9Q5Z9); test: GC-MS of products in spent medium of engineered yeast; conditions: co-expressed GgBAS and MTR1; products erythrodiol, oleanolic acid
T5 construct: full-length ORF from cDNA, expressed in Saccharomyces cerevisiae with GgBAS and M. truncatula reductase MTR1
T5 sequence (A0A1I9Q5Z9 1-480): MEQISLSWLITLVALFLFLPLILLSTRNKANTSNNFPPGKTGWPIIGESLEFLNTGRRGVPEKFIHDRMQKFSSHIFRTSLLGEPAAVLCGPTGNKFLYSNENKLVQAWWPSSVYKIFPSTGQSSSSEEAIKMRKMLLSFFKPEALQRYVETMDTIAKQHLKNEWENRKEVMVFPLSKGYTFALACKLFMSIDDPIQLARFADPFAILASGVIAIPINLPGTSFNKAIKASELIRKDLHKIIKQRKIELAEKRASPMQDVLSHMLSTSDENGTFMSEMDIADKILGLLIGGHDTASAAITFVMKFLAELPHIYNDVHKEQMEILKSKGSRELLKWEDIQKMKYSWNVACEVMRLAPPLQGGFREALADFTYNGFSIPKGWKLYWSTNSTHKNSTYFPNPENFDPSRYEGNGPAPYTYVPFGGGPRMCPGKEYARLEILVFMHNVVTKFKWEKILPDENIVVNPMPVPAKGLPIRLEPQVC

[6] = target: T6, CYP716A140 (Platycodon grandiflorus, UniProt A0A1I9Q5Y8); test: as above; conditions: co-expressed GgBAS and MTR1; products of C-28 oxidation: erythrodiol, oleanolic acid
T6 construct: full-length ORF (RACE), expressed in Saccharomyces cerevisiae with GgBAS and M. truncatula reductase MTR1
T6 sequence (A0A1I9Q5Y8 1-479): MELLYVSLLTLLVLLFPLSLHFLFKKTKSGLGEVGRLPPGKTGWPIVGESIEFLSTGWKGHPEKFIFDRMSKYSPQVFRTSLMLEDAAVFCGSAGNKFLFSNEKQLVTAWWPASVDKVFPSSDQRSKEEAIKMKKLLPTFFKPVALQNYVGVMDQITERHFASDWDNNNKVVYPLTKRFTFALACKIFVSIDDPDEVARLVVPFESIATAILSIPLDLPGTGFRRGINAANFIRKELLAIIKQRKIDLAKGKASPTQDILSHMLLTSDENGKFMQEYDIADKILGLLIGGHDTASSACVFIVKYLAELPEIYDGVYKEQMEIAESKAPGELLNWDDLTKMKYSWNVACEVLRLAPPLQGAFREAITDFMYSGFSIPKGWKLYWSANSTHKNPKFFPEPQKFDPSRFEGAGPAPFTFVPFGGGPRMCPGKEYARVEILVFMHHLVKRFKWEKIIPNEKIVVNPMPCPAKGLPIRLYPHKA

[7] = target: T7, CYP716E41 (Centella asiatica, UniProt A0A1I9Q5Y6); test: as above; conditions: co-expressed GgBAS, CYP716A83 and MTR1; putative product 6β-hydroxy oleanolic acid
T7 construct: full-length ORF from cDNA library, expressed in Saccharomyces cerevisiae with GgBAS, CYP716A83 and M. truncatula reductase MTR1
T7 sequence (A0A1I9Q5Y6 1-477): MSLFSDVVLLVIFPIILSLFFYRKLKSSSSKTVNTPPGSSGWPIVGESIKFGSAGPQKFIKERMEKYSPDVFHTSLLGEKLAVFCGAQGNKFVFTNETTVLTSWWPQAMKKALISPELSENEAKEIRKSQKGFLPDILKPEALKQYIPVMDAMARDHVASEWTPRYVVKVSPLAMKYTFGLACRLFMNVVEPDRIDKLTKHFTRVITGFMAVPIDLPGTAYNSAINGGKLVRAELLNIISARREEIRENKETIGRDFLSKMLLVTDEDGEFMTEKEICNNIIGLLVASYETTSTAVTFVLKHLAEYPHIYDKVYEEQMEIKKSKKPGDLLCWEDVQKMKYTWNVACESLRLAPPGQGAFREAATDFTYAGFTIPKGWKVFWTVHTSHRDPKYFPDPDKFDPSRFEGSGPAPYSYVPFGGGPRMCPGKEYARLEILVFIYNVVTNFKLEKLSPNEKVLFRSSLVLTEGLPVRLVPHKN

[8] = target: T8, CYP716C11 (Centella asiatica, UniProt A0A1I9Q5Y7); test: as above; conditions: co-expressed GgBAS, CYP716A83 and MTR1; product maslinic acid
T8 construct: gene MAA45; full-length ORF from cDNA library, expressed in Saccharomyces cerevisiae with GgBAS (or CaDDS), CYP716A83 and M. truncatula reductase MTR1; T2A polyprotein CYP716A83-CYP716C11
T8 sequence (A0A1I9Q5Y7 1-475): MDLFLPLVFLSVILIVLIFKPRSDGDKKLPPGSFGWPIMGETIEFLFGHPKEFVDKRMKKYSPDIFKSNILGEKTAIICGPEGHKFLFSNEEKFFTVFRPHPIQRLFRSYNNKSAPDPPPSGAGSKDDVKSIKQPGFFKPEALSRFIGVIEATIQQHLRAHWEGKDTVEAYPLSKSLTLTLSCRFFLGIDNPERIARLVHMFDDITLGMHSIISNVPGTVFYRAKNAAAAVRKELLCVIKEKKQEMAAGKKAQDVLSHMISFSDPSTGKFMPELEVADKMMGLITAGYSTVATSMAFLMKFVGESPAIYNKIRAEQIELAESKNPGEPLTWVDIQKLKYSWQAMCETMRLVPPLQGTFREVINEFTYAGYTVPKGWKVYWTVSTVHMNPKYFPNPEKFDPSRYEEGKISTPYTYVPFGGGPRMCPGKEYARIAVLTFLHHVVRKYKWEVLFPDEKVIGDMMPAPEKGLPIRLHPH

T2 sequence (A0A1I9Q5Y4 entry or part of it): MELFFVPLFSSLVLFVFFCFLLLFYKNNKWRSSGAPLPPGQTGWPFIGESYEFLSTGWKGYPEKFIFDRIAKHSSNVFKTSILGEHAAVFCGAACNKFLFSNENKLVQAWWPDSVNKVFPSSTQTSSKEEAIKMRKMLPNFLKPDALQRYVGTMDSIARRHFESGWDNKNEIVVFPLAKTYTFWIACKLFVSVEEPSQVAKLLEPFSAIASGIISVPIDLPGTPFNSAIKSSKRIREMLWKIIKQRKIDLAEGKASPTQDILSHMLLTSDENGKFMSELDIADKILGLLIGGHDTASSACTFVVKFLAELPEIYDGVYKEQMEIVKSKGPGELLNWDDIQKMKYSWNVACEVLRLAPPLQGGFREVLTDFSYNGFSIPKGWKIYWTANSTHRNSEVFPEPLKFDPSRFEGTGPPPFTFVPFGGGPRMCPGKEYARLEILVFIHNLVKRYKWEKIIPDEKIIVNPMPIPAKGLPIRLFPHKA

SMILES: CC(C)=CCC[C@@H](C)[C@H]1CC[C@@]2(C)[C@@H]3CC[C@H]4C(C)(C)[C@@H](O)CC[C@@]45C[C@@]35CC[C@]12C [cycloartenol]
- GC-MS of products in spent medium of engineered yeast [1]: dependent on both SlCAS and CYP716A113v1

SMILES: C[C@H]1[C@H](C)CC[C@]2(C)CC[C@]3(C)C(=CC[C@@H]4[C@@]5(C)CC[C@H](O)C(C)(C)[C@@H]5CC[C@]43C)[C@H]12 [α-amyrin]
- GC-MS of products in spent medium of engineered yeast ([2]; co-expressed CaDDS and MTR1 (with CYP716E41 or CYP716C11), product ursolic acid): CYP716A83, CYP716C11 and CYP716E41 can function on both oleanane and ursane backbones

SMILES: CC1(C)CC[C@]2(C)CC[C@]3(C)C(=CC[C@@H]4[C@@]5(C)CC[C@H](O)C(C)(C)[C@@H]5CC[C@]43C)[C@@H]2C1 [β-amyrin]
- GC-MS of products in spent medium of engineered yeast [3]: CYP716A83 and CYP716A86 catalyse the three-step oxidation of β-amyrin at the C-28 position
- GC-MS of engineered yeast medium; product NMR [4]: CYP716A141 appears to be a multifunctional β-amyrin oxidase
- GC-MS of products in spent medium of engineered yeast ([2]; co-expressed GgBAS and MTR1, in vivo, products erythrodiol, oleanolic aldehyde, oleanolic acid): CYP716A83 and CYP716A86 catalyse the three-step oxidation of β-amyrin at the C-28 position
- GC-MS of products in spent medium of engineered yeast [5]: CYP716A110 revealed new peaks corresponding to the erythrodiol and oleanolic acid standards
- GC-MS of products in spent medium of engineered yeast [6]: CYP716A140-expressing yeast showed three new peaks corresponding to C-28 oxidation

SMILES: CC1(C)CC[C@]2(C(=O)O)CC[C@]3(C)C(=CC[C@@H]4[C@@]5(C)CC[C@H](O)C(C)(C)[C@@H]5CC[C@]43C)[C@@H]2C1 [oleanolic acid]
- GC-MS of products in spent medium of engineered yeast [7]: CYP716C11 and CYP716E41 converted oleanolic acid to maslinic acid
- GC-MS of products in spent medium of engineered yeast [8]: CYP716C11 and CYP716E41 converted oleanolic acid to maslinic acid
